Experimental findings from BindingDB's records for doi:10.1021/bi900258v (Pfizer, 2009) are described below.

In experiment [1] the target is T1, Serine/threonine-protein kinase Chk1 (Homo sapiens, UniProt O14757).
T1 sequence (O14757 whole entry): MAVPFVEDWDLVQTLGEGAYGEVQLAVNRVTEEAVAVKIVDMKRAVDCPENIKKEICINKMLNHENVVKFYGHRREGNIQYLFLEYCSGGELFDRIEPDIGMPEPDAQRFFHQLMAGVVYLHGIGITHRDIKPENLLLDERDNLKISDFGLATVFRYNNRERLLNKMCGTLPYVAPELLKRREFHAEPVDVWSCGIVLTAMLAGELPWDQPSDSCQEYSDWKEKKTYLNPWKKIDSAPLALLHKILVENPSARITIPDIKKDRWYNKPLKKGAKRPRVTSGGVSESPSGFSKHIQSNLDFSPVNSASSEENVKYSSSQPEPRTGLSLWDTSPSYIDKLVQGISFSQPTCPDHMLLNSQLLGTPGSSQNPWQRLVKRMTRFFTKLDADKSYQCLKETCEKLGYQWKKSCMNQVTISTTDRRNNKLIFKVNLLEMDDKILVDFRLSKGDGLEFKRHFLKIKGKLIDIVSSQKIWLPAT
Briefly: CHK1 Inhibition Assay. The settings on record: pH 7.4; 22 °C. An excerpt: The inhibitors reported in this study bind to CHK1 according to a general mechanism illustrated in Scheme 1 where E, S, and I stand for enzyme, substrate and inhibitor using Caliper LC-3000 instrument (Caliper Life Science).

The target of experiment [2] is T1, Serine/threonine-protein kinase Chk1. Kind of experiment: Surface Plasmon Resonance BindingAssay. Conditions: pH 8; 20 °C. As to the method:
Surface plasmon resonance (SPR) biosensor binding studies were conducted using a Biacore 3000 instrument (GE Healtchare).

As for `O=C1NN=Cc2c(C(=O)N3C[C@@H](O)[C@@H](O)C3)[nH]c3cc(NC(=O)C4C[C@H]4c4ccccc4)cc1c23` (some centres undefined) [CHK1 compound 1], the inhibition constant Ki (in general, the dissociation constant of the complex between target and ligand, obtained from inhibition or displacement) in experiment [1] was 1.75 nM; in experiment [2], 5.14 nM.

As for `CC(C)(C)c1ccc(C(=O)NC(=O)Nc2cccc3ccccc23)cc1[N+](=O)O` [CHK1 compound 3], the Ki in experiment [1] was 146 nM; in experiment [2], 290 nM.
